Reference: ChEMBL document CHEMBL4342439, “Targeting Stimulator of Interferon Genes (STING): A Medicinal Chemistry Perspective” (J Med Chem, 2020)

How the values were obtained:
[1] = biological target: T1, Stimulator of interferon genes protein (Homo sapiens, UniProt Q86WV6); assay: Inhibition of STING in human THP1 cells by IFN reporter gene assay; type: cell-based
[2] = biological target: T1, Stimulator of interferon genes protein; assay: Inhibition of STING in human THP1 cells in presence of PFO by IFN reporter gene assay; type: cell-based
[3] = biological target: Stimulator of interferon genes protein (Homo sapiens, UniProt Q86WV6, G230A/R293Q/R71H); assay: Displacement of [3H]-cGAMP from full length STING HAQ mutant in human THP1 cells by filtration binding assay; type: cell-based
Sequence of Stimulator of interferon genes protein (Homo sapiens, UniProt Q86WV6, G230A/R293Q/R71H) (Q86WV6 whole entry R71H/G230A/R293Q): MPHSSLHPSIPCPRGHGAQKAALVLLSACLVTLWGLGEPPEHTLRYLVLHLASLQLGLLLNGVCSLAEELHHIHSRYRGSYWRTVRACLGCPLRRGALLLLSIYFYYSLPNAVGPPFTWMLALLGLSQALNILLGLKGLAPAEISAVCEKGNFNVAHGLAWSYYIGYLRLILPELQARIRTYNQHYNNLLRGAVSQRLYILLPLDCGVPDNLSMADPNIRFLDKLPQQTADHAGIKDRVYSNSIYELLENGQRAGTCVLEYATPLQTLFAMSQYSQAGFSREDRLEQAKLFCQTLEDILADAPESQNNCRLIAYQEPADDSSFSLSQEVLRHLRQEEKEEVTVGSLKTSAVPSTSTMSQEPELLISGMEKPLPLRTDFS

[4] = Binding affinity to human STING H232 mutant by ITC assay
[5] = biological target: T1, Stimulator of interferon genes protein; assay: Inhibition of STING in human THP1 cells; type: cell-based
[6] = biological target: T1, Stimulator of interferon genes protein; assay: Inhibition of STING in human THP1 cells in presence of digitonin by IFN reporter gene assay; type: cell-based
[7] = biological target: T2, Stimulator of interferon genes protein (Mus musculus, UniProt Q3TBT3); assay: Binding affinity to mouse STING by ITC assay
T2 sequence (Q3TBT3 whole entry): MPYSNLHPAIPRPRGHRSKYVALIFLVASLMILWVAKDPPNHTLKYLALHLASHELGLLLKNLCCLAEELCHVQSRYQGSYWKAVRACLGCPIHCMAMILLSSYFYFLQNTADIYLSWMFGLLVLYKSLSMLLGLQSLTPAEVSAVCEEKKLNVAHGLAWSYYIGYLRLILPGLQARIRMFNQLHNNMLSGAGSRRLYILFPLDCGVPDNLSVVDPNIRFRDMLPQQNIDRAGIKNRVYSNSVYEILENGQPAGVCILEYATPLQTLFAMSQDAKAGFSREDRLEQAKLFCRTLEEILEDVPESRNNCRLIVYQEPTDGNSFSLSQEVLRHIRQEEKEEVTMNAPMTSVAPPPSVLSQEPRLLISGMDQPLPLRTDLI

[8] = biological target: T1, Stimulator of interferon genes protein; assay: Inhibition of wild type human STING by SPA assay
[9] = biological target: T1, Stimulator of interferon genes protein; assay: Displacement of [3H]-cGAMP from wild type human STING by filtration binding assay
[10] = biological target: T2, Stimulator of interferon genes protein; assay: Displacement of [3H]-cGAMP from mouse STING by filtration binding assay
[11] = biological target: T1, Stimulator of interferon genes protein; assay: Inhibition of STING in human THP1 cells by R232 IRF-luciferase reporter gene assay; type: cell-based
[12] = system: Stimulator of interferon genes protein (Homo sapiens), Q86WV6 [R71H,G230A,R293Q]; assay: Effect on full length STING HAQ mutant in human THP1 cells at 10 uM relative to 2',3- cGAMP; type: cell-based
Sequence of Stimulator of interferon genes protein (Homo sapiens), Q86WV6 [R71H,G230A,R293Q] (Q86WV6 whole entry R71H/G230A/R293Q): as the sequence (Q86WV6 whole entry R71H/G230A/R293Q) above

[13] = Inhibition of human STING H232 mutant by SPA assay

T1 sequence (Q86WV6 whole entry): as the sequence (Q86WV6 whole entry R71H/G230A/R293Q) above, with H71R, A230G, Q293R counted along it

BP1(=O)OC[C@H]2O[C@@H](n3cnc4c(N)ncnc43)[C@H](O)[C@@H]2OP(=O)(O)OC[C@H]2O[C@@H](n3cnc4c(=O)[nH]c(N)nc43)[C@H](O1)[C@@H]2O (some centres not stated)
EC50 [1]: < 30 µM
EC50 [2]: < 0.1 µM

Nc1nc2c(nnn2[C@@H]2O[C@@H]3COP(=O)(O)O[C@H]4[C@@H](O)[C@H](n5cnc6c(N)ncnc65)O[C@@H]4COP(=O)(O)O[C@@H]2[C@@H]3O)c(=O)[nH]1
EC50 [3]: < 0.001 µM

CCC[C@H]1[C@H]2OP(=O)(O)OC[C@H]3O[C@@H](n4cnc5c(N)ncnc54)[C@H](O)[C@@H]3OP(=O)(O)OC[C@H]1O[C@H]2n1cnc2c(=O)[nH]c(N)nc21
EC50 [1]: ≤ 0.1 µM
EC50 [2]: ≤ 30 µM

Nc1nc2c(ncn2[C@@H]2O[C@@H]3COP(=O)(O)O[C@H]4[C@@H](O)[C@H](n5cnc6c(N)nc(F)nc65)O[C@@H]4COP(=O)(O)O[C@@H]2[C@@H]3O)c(=S)[nH]1
EC50 [3]: 0.0017 µM

Nc1nc2c(ncn2[C@@H]2O[C@@H]3COP(=O)(O)O[C@@H]4[C@H](O)[C@@H](COP(=O)(O)O[C@@H]2[C@@H]3O)O[C@H]4n2cnc3c(N)ncnc32)c(=O)[nH]1
Kd [4]: 2.5 µM

COc1cc2sc(C(=O)[C@H]3C[C@H]3C(=O)O)cc2c(F)c1OC
EC50 [3]: 17.8 µM

COc1cc2sc(C(=O)C[C@H](C)C(=O)O)cc2cc1Br
EC50 [3]: 2.64 µM

Nc1ncnc2c1ncn2[C@@H]1O[C@@H]2CNC(=O)N[C@H]3[C@@H](O)[C@H](n4cnc5c(N)ncnc54)O[C@@H]3CNC(=O)N[C@H]2[C@H]1O
EC50 [5]: 25.4 µM

COc1cc2sc(C(=O)C[C@H](C)C(=O)O)cc2c(F)c1OC
EC50 [3]: 1.38 µM

COc1cc2cc(C(=O)CCC(=O)O)sc2cc1OC
EC50 [3]: 1.72 µM

C#C[C@@H]1O[C@@H]2COP(=O)(S)O[C@H]3[C@@H](F)[C@H](n4cnc5c(N)ncnc54)O[C@@H]3COP(=O)(S)O[C@@H]1[C@@H]2O (some centres not stated)
EC50 [3]: < 0.001 µM

BP1(=O)OC[C@H]2O[C@@H](n3cnc4c(=O)[nH]c(N)nc43)[C@H](OP(=O)(O)OC[C@H]3O[C@@H](n4cnc5c(N)ncnc54)[C@H](O)[C@@H]3O1)[C@@H]2O (some centres not stated)
EC50 [1]: < 30 µM
EC50 [2]: < 0.1 µM

COc1cc2cc(C(=O)CC(C(=O)O)C(C)C)sc2cc1OC (configuration not stated)
EC50 [3]: 9.59 µM

COc1cc2cc(C(=O)C[C@H](C)C(=O)O)sc2cc1Br
EC50 [3]: 0.894 µM

Nc1ncnc2c1ncn2[C@@H]1O[C@@H]2CO[P@@](=O)(S)O[C@@H]3[C@H](F)[C@@H](CO[P@@](=O)(S)O[C@H]2[C@H]1O)O[C@H]3n1cnc2c(N)ncnc21
EC50 [1]: 11.2 µM
EC50 [6]: 0.399 µM

COc1cc2cc(C(=O)CC(C)C(=O)O)sc2cc1OC (configuration not stated)
EC50 [3]: 5.55 µM

Nc1ncnc2c1ncn2[C@@H]1O[C@@H]2CO[P@@](=O)(S)O[C@@H]3C[C@@H](CO[P@@](=O)(S)O[C@H]2[C@H]1F)O[C@H]3n1cnc2c(N)ncnc21
EC50 [1]: 10.2 µM

Nc1nc2c(ncn2[C@@H]2O[C@@H]3CO[P@@](=O)(S)O[C@H]4[C@H]5OC[C@]4(CO[P@@](=O)(S)O[C@H]3[C@H]2O)O[C@H]5n2cnc3c(N)ncnc32)c(=O)[nH]1
EC50 [6]: 5.8 µM

COc1c(O)cc2oc3cc(O)c(CC=C(C)C)c(O)c3c(=O)c2c1CC=C(C)C [MANGOSTIN]
Kd [7]: 137 µM

CCn1nc(C)cc1C(=O)Nc1nc2cc(C(N)=O)ccc2n1CCCCn1c(NC(=O)c2cc(C)nn2CC)nc2cc(C(N)=O)ccc21
IC50 [8]: 0.02 µM

COc1c(Cl)ccc2c(=O)c3ccc(C(C)(C)C)cc3n(CC(=O)O)c12
IC50 [9]: < 20 µM
IC50 [10]: < 20 µM
IC50 [11]: > 50 µM

Nc1ncnc2c1ncn2[C@@H]1O[C@@H]2CO[P@@](=O)(S)O[C@@H]3[C@H](F)[C@@H](CO[P@@](=O)(S)O[C@H]2[C@H]1F)O[C@H]3n1cnc2c(N)ncnc21
EC50 [1]: 4.5 µM
EC50 [6]: 0.19 µM

NC[C@H]1[C@H]2OP(=O)(O)OC[C@H]3O[C@@H](n4cnc5c(N)ncnc54)[C@H](O)[C@@H]3OP(=O)(O)OC[C@H]1O[C@H]2n1cnc2c(=O)[nH]c(N)nc21
EC50 [3]: 0.0215 µM

C=C1[C@@H](n2cnc3c(N)ncnc32)[C@H](F)[C@@H]2O[P@@](O)(=S)OC[C@H]3O[C@@H](n4cnc5c(=O)[nH]c(N)nc54)[C@H](OP(O)(=S)OC[C@@H]12)[C@@H]3F (some centres not stated)
EC50 [1]: 0.74 µM
Activity [12]: 430%

CCn1nc(C)cc1C(=O)/N=c1\[nH]c2cc(C(N)=O)ccc2n1C[C@@H](O)c1ccccc1
IC50 [8]: 14 µM

Nc1nc2c(ncn2[C@@H]2O[C@@H]3COP(=O)(O)O[C@H]4[C@@H](O)[C@H](n5cnc6c(N)nc(F)nc65)O[C@@H]4COP(=O)(O)O[C@@H]2[C@@H]3O)c(=O)[nH]1
EC50 [3]: 0.0246 µM

COc1cc2cc(C(=O)CCC(=O)OC(C)(C)C)sc2cc1OC
EC50 [3]: 5.99 µM

COc1cc2sc(C(=O)C[C@H](C)C(=O)O)cc2c2nc(C)oc12
EC50 [3]: 0.531 µM

Nc1nc2c(ncn2[C@@H]2S[C@@H]3COP(=O)(O)O[C@H]4[C@@H](O)[C@H](n5cnc6c(N)ncnc65)O[C@@H]4COP(=O)(O)O[C@@H]2[C@@H]3O)c(=O)[nH]1
EC50 [3]: 0.0012 µM

Nc1nc2c(ncn2[C@@H]2O[C@@]34CO[C@@H]2[C@@H]3O[P@](=O)(S)OC[C@@]23CO[C@@H]([C@H](n5cnc6c(N)ncnc65)O2)[C@@H]3O[P@](=O)(S)OC4)c(=O)[nH]1
EC50 [6]: 19.3 µM

COc1cc2cc(C(=O)C[C@H](C)C(=O)O)sc2cc1OC
EC50 [3]: 2.74 µM

CCn1nc(C)cc1C(=O)/N=c1\[nH]c2cc(C(N)=O)cc(OC)c2n1C/C=C/Cn1/c(=N/C(=O)c2cc(C)nn2CC)[nH]c2cc(C(N)=O)cc(OCCCN3CCOCC3)c21
EC50 [13]: 0.2 µM

COc1cc2sc(C(=O)[C@@H]3C[C@@H]3C(=O)O)cc2c(F)c1OC
EC50 [3]: 0.599 µM

Nc1ncnc2c1ncn2[C@@H]1O[C@@H]2CNC(=S)N[C@H]3[C@@H](O)[C@H](n4cnc5c(N)ncnc54)O[C@@H]3CNC(=S)N[C@H]2[C@H]1O
EC50 [5]: 22.2 µM
